This is an account of results in ChEMBL document CHEMBL1201862, “PubChem BioAssay data set” (2004).

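48-hour exposure; five concentrations; linearly interpolated endpoints. GI50 marks 50% less growth.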 Calls of active or inactive are those of the source. Rule as the data show it: active = GI50 up to about 1.1 µM and inactive = higher. Some results are limits rather than exact numbers.

Assay in all cases: growth of human tumour cells (NCI), 48 h
The test system of test [1] is ACHN.
Test [2] has as its system COLO 205.
Test [3] concerns DU-145.
Test [4] concerns EKVX.
For test [5], the system named is HOP-62.
Test [6] deals with HT-29.
In test [7] the test system is Hs-578T.
Test [8] concerns K562.
Test [9] relates to MDA-MB-231.
Test [10] concerns NCI/ADR-RES.
The test system of test [11] is OVCAR-3.
Test [12] relates to OVCAR-5.
For test [13], the system named is OVCAR-8.
Test [14] relates to PC-3.
For test [15], the system named is RPMI-8226.
The test system of test [16] is SF-295.
The test system of test [17] is SK-MEL-28.
For test [18], the system named is SNB-19.
The test system of test [19] is UO-31.
The test system of test [20] is A498.

Consider `Cc1ccc(/N=N/C(=N/NC(=O)c2cc(Cl)ccc2C(=O)c2ccccc2)c2ccc(N(CCC#N)CCC#N)cc2C)cc1`, for which the GI50 is 22 µM (inactive) in test [1]; 9.14 µM (inactive) in [2]; 11.5 µM (inactive) in [3]; 17.3 µM (inactive) in test [4]; 15.6 µM (inactive) in test [5]; 16.9 µM (inactive) in [6]. Moreover, the GI50 in [7] was 27.2 µM (inactive); in test [8] it was 17.4 µM (inactive); in test [9], 4.06 µM (inactive); in test [10], 21.1 µM (inactive); in [11], 3.01 µM (inactive); in [12], 21.3 µM (inactive). For the same compound, the GI50 in [13] is 11 µM (inactive); in test [14] it was 7.24 µM (inactive); in test [15], 10.2 µM (inactive); in [16] it was 14.9 µM (inactive); in test [17] it was 14.1 µM (inactive); in test [18], 33.2 µM (inactive). The GI50 in test [19] was 22.4 µM (inactive).
`O=c1[nH]c(=O)n(C2CC(O)C(COP(=O)(OCC(Cl)(Cl)Cl)OCC(Cl)(Cl)Cl)O2)cc1F` (stereo not drawn): the GI50 is 0.298 µM (active) in test [1]; 23.5 µM (inactive) in [2]; 2.81 µM (inactive) in test [3]; > 100 µM (inactive) in [4]; 0.115 µM (active) in test [5]; 9.23 µM (inactive) in [6]. Also, the GI50 is 52.7 µM (inactive) in test [7]; 4.11 µM (inactive) in test [8]; > 47 µM (inactive) in test [9]; 1.29 µM (inactive) in test [10]; 8 µM (inactive) in test [11]; > 94.2 µM (inactive) in test [12]. In addition, the GI50 is 0.556 µM (active) in [13]; 15.2 µM (inactive) in test [14]; 3.72 µM (inactive) in test [15]; 0.123 µM (active) in test [16]; > 28.6 µM (inactive) in test [17]; 7.98 µM (inactive) in [18]. Also, in test [19], the GI50 is 0.301 µM (active).
As to `Cc1nc2cccc(F)c2c(=O)n1-c1nnc(C(F)(F)F)s1`, the GI50 in [1], in test [2], in test [3], in test [4], in [5] and in [6] was > 10 µM (inactive) throughout. Further, the GI50 in test [7], in [8], in [9], in test [10], in test [11] and in test [12] was > 10 µM (inactive) each time. Moreover, the GI50 in [13], in test [14], in test [15], in test [16], in [17] and in test [18] was > 10 µM (inactive) in each case. The GI50 in test [19] is > 10 µM (inactive).
Turning to `COC(=O)c1nc(-c2nc(CCNC(=O)OC(C)(C)C)sc2Cl)sc1Cl`, the GI50 in [20] is 94.6 µM (inactive); in [1], 83.2 µM (inactive); in test [2] it was 98.4 µM (inactive); in test [3], > 100 µM (inactive); in test [4], > 100 µM (inactive); in test [5] it was 32.6 µM (inactive). The GI50 was > 100 µM (inactive) in test [6]; > 100 µM (inactive) in test [7]; 36.7 µM (inactive) in test [8]; 32.2 µM (inactive) in [10]; 68.9 µM (inactive) in [11]; > 100 µM (inactive) in [12]. Also, the GI50 in test [13] was 35.5 µM (inactive); in [14], 28.1 µM (inactive); in [15], 41.1 µM (inactive); in [16], > 100 µM (inactive); in test [17], 70.1 µM (inactive); in [18], > 100 µM (inactive). Moreover, the GI50 in [19] is 89.7 µM (inactive).
`O=C(O)c1cc2ccccc2c2c1C(=O)c1ccccc1-2`: the GI50 in test [1] is 30.3 µM (inactive); in [2] it was > 100 µM (inactive); in [3], > 100 µM (inactive); in test [5], 20.7 µM (inactive); in test [6] it was > 100 µM (inactive); in test [7] it was > 100 µM (inactive). Besides, the GI50 in [8] was > 100 µM (inactive); in test [9] it was > 100 µM (inactive); in test [10] it was > 100 µM (inactive); in [11], 50 µM (inactive); in [12], > 100 µM (inactive); in [13], > 100 µM (inactive). Besides, the GI50 in test [14] was > 100 µM (inactive); in [15], 65.8 µM (inactive); in test [16], 56 µM (inactive); in test [17] it was 58.3 µM (inactive); in [18], 57 µM (inactive); in [19], 46 µM (inactive).
On to `O=C(N/N=C\c1cccs1)c1ccncc1`, for which the GI50 in test [20], in [1], in test [2], in test [4], in test [5] and in test [6] was > 100 µM (inactive) each time. Also, the GI50 in [7], in test [8], in test [9], in test [10], in [11] and in [12] was > 100 µM (inactive) each time. The GI50 in [13], in test [14], in test [15], in test [16], in test [17] and in [18] was > 100 µM (inactive) each time. In addition, the GI50 in [19] was > 100 µM (inactive).
Take `O=C1CC(O)c2c1csc2Br` (stereo not drawn): the GI50 is 21.9 µM (inactive) in test [1]; 41.3 µM (inactive) in [2]; 25.9 µM (inactive) in [3]; 48.2 µM (inactive) in test [4]; 73.6 µM (inactive) in test [5]; 33.3 µM (inactive) in test [6]. Moreover, the GI50 was 26.6 µM (inactive) in [7]; 25.6 µM (inactive) in test [8]; 23.8 µM (inactive) in test [9]; 20.7 µM (inactive) in test [10]; 19.3 µM (inactive) in [11]; > 100 µM (inactive) in test [12]. The GI50 in test [13] was 23.3 µM (inactive); in [14], 32.4 µM (inactive); in test [15] it was 14.3 µM (inactive); in test [16], 60.7 µM (inactive); in test [17] it was 17.8 µM (inactive); in test [18], 34.2 µM (inactive). In addition, the GI50 in test [19] was 19.8 µM (inactive).
With `CCOc1ccc(N/C(=C(/C(Cl)=C(/Cl)N(CC)CC)[N+](=O)[O-])n2nnc3ccccc32)cc1`, the GI50 in test [20] was 15 µM (inactive); in test [1], 20 µM (inactive); in test [2], 21.6 µM (inactive); in test [4] it was 23.3 µM (inactive); in [5], 30.7 µM (inactive); in [6], 26.4 µM (inactive). Besides, the GI50 was 47.6 µM (inactive) in [7]; > 100 µM (inactive) in test [8]; 10.7 µM (inactive) in test [9]; 21.1 µM (inactive) in [10]; 5.24 µM (inactive) in test [11]; 33.3 µM (inactive) in test [12]. The GI50 is 16.2 µM (inactive) in test [13]; 17.5 µM (inactive) in test [14]; 26.9 µM (inactive) in test [15]; 30.6 µM (inactive) in test [16]; 20 µM (inactive) in [17]; 31.7 µM (inactive) in test [18]. In test [19], the GI50 is 19.6 µM (inactive).
With `C[C@@H]1CC[C@H]2[C@H](C)C(OC3O[C@@H]4O[C@@]5(C)CC[C@H]6[C@H](C)CC[C@@H]([C@@H]3C)[C@@]46O5)O[C@@H]3O[C@@]4(C)CC[C@@H]1[C@]32O4` (stereo partly drawn), the GI50 in test [20], in test [1], in test [2], in [3], in test [4] and in test [5] was > 100 µM (inactive) in each case. The GI50 in test [6], in test [7], in test [8], in test [9], in test [11] and in test [12] was > 100 µM (inactive) in each case. Besides, the GI50 in test [13], in test [14], in test [15], in test [16], in [17] and in [18] was > 100 µM (inactive) in each case.
For `Cc1cc(NS(=O)(=O)c2ccc(NC(=O)c3ccc4[nH]c5ccccc5c(=O)c4c3)cc2)no1`, the GI50 in test [1], in [2], in test [3], in [4], in test [5] and in test [6] was > 100 µM (inactive) each time. The GI50 was 49.9 µM (inactive) in [7]; > 100 µM (inactive) in test [8]; > 100 µM (inactive) in [9]; > 100 µM (inactive) in [10]; > 100 µM (inactive) in test [11]; > 100 µM (inactive) in [12]. Further, the GI50 in test [13], in test [14], in [15], in test [16], in [17] and in test [18] was > 100 µM (inactive) in each case. Also, in test [19], the GI50 is > 100 µM (inactive).
